Data as given in the supplement of paper PMC10307832.

How the values were obtained:
Test in all cases: relative viability (nuclei count vs DMSO), 5 days (fraction); higher = more cells survive
Linifanib + Palbociclib = compound: Cc1ccc(F)c(NC(=O)Nc2ccc(-c3cccc4[nH]nc(N)c34)cc2)c1 [Linifanib] + CC(=O)c1c(C)c2cnc(Nc3ccc(N4CCNCC4)cn3)nc2n(C2CCCC2)c1=O [Palbociclib] (partner 0.5 µM)
How it was run: (§1)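 Relative viability equals treated-well nuclei counts divided by vehicle-well nuclei counts. Counts came from 4× images of lung cancer cell lines grown in 1536-well plates for 5 days after pin-tool dosing on the day after seeding. Dosing used one drug alone or a fixed anchor-drug dose plus five library-drug doses (not always all listed) in √10 steps, and values are medians of duplicate plates.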

Linifanib + Decitabine = compound: Cc1ccc(F)c(NC(=O)Nc2ccc(-c3cccc4[nH]nc(N)c34)cc2)c1 [Linifanib] + Nc1ncn([C@H]2C[C@H](O)[C@@H](CO)O2)c(=O)n1 [Decitabine] (partner 2 µM)
How it was run: as §1

Linifanib = compound: Cc1ccc(F)c(NC(=O)Nc2ccc(-c3cccc4[nH]nc(N)c34)cc2)c1 [Linifanib]
How it was run: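 Five library-drug doses spaced by √10 were pinned onto vehicle-anchored 1536-well plates of lung cancer cell lines that had been kept overnight at 37 °C. Cells went 5 days without medium change, then were fixed, permeabilised and Hoechst-stained together, imaged at 4× and counted by MetaXpress. Viability is the ratio of treated-well to vehicle-well nuclei, taken as a median over plates. Plates required control CV below 25% and at least one doubling.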

| Cell Line | relative viability (Linifanib + Palbociclib; first compound 0.03162 µM) | relative viability (Linifanib + Palbociclib; first compound 0.1 µM) | relative viability (Linifanib + Palbociclib; first compound 0.3162 µM) | relative viability (Linifanib + Decitabine; first compound 0.03162 µM) | relative viability (Linifanib + Decitabine; first compound 0.1 µM) | relative viability (Linifanib + Decitabine; first compound 0.3162 µM) | relative viability (Linifanib; 0.03162 µM) | relative viability (Linifanib; 0.1 µM) | relative viability (Linifanib; 0.3162 µM) |
| --- | --- | --- | --- | --- | --- | --- | --- | --- | --- |
| NCI-H2087 | 0.219 | 0.285 | 0.269 | 0.31 | 0.248 | 0.268 | 1.05 | 1.19 | 0.964 |
| HARA | 0.274 | 0.244 | 0.303 | 0.599 | 0.61 | 0.61 | 0.926 | 1.04 | 0.907 |
| COR-L 105 | 0.424 | 0.405 | 0.401 | 0.602 | 0.73 | 0.585 | 0.975 | 0.97 | 0.904 |
| NCI-H1944 | 0.334 | 0.353 | 0.35 | 0.425 | 0.449 | 0.415 | 0.931 | 1.08 | 0.963 |
| LOU-NH91 | 0.551 | 0.517 | 0.51 | 0.812 | 0.785 | 0.814 | 0.979 | 1.07 | 0.951 |
| EMC-BAC-2 | 0.542 | 0.562 | 0.531 | 1.01 | 1.03 | 0.951 | 1.07 | 1.03 | 0.965 |
| BEN | 0.471 | 0.521 | 0.438 | 0.772 | 0.818 | 0.696 | 0.888 | 1.16 | 0.915 |
| EKVX | 0.447 | 0.383 | 0.415 | 0.314 | 0.359 | 0.35 | 0.982 | 1.01 | 0.91 |
| NCI-H1666 | 0.649 | 0.647 | 0.693 | 0.856 | 0.691 | 0.698 | 0.986 | 1.03 | 0.939 |
| UMC-11 | 0.342 | 0.309 | 0.335 | 0.585 | 0.562 | 0.581 | 0.979 | 1.02 | 0.878 |
| SK-MES-1 | 0.323 | 0.331 | 0.336 | 0.352 | 0.408 | 0.36 | 0.969 | 1.08 | 0.965 |
| HCC-827 | 0.491 | 0.544 | 0.46 | 0.32 | 0.31 | 0.331 | 1 | 1.06 | 1.02 |
| LK-2 | 0.564 | 1.01 | 0.565 | 0.305 | 0.365 | 0.224 | 1.05 | 1.12 | 0.965 |
| ABC-1 | 0.754 | 0.797 | 0.787 | 0.961 | 0.942 | 0.95 | 1.03 | 0.842 | 0.672 |
| NCI-H2085 | 0.485 | 0.474 | 0.463 | 0.535 | 0.632 | 0.573 | 1.02 | 1.06 | 1.01 |
| NCI-H1792 | 0.611 | 0.666 | 0.621 | 0.525 | 0.643 | 0.464 | 0.935 | 0.944 | 0.928 |
| HCC-44 | 0.996 | 0.955 | 1.01 | 0.984 | 0.862 | 0.961 | 1.05 | 0.95 | 0.944 |
